Results: article PMC11786100, “Chronic GIPR agonism results in pancreatic islet GIPR functional desensitisation” (Molecular Metabolism, 2025)

How the values were obtained:
human GCGR = molecular target: T1, human GCGR (Homo sapiens, UniProt P47871); assay: HTRF cAMP assay in transiently transfected AD-293 cells; type: cell-based; conditions: 30 min stimulation, n = 3–5
T1 construct: Plasmids encoding full length, wild-type human or mouse GLP-1R, GIPR or glucagon receptor (GCGR) in the pcDNA5/FRT vector; host or cells: AD-293
T1 sequence (P47871 26-477): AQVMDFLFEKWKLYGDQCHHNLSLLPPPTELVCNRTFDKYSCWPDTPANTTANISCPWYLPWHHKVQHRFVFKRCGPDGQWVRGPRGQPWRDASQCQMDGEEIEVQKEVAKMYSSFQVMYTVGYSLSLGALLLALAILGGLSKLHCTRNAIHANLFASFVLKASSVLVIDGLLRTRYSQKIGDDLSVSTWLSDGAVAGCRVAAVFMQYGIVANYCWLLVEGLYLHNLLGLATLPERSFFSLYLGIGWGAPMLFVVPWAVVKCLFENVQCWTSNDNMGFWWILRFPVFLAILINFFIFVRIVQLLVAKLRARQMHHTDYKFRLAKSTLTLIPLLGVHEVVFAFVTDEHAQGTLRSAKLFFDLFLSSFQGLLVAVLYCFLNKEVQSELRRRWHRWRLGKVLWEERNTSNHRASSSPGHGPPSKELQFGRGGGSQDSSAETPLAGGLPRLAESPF
Procedure: (§1) AD-293 cells were transfected with desired plasmid DNA 24 h prior to cAMP quantification using the cAMP-Gs Dynamic 2 kit (Cisbio, France), as per manufacturer's protocol. Full details are provided in the supplementary methods.
(§2) AD-293 cells were added to a 12-well plate and maintained in 2 ml complete DMEM. 1 μg of specified plasmid DNA was added to each well alongside Lipofectamine 2000 (Thermo Fisher, UK). cAMP production was quantified 24 hours following transfection using homogenous time resolved fluorescence (HTRF), specifically the cAMP-Gs Dynamic 2 kit (Cisbio, France). Peptides and cells were diluted in DMEM + 1% P/S + 0.1% BSA. For peptide stability testing, cells, fresh peptide and peptide incubated with dispersed islet cells were diluted in RPMI-1640 (Thermo Fisher, UK) + 10% FBS + 1% P/S. 10 μl of peptide and 10 μl of cell suspension were added in duplicate to an opaque 96-well plate (Grenier Bio-One, Austria) and incubated at 37°C for 30 minutes. 10 μl of cAMP-d2 and anti-cAMP cryptate, both diluted in lysis buffer, were added in quick succession as per the manufacturer’s protocol. The plates were then incubated at room temperature for 45 minutes and read using the SpectraMax i3x (Molecular Devices, US).

mouse GCGR = molecular target: T2, mouse GCGR (Mus musculus, UniProt Q61606); assay: as above; type: cell-based; conditions: 30 min stimulation, n = 3–5
T2 construct: Plasmids encoding full length, wild-type human or mouse GLP-1R, GIPR or glucagon receptor (GCGR) in the pcDNA5/FRT vector; host or cells: AD-293
T2 sequence (Q61606 27-485): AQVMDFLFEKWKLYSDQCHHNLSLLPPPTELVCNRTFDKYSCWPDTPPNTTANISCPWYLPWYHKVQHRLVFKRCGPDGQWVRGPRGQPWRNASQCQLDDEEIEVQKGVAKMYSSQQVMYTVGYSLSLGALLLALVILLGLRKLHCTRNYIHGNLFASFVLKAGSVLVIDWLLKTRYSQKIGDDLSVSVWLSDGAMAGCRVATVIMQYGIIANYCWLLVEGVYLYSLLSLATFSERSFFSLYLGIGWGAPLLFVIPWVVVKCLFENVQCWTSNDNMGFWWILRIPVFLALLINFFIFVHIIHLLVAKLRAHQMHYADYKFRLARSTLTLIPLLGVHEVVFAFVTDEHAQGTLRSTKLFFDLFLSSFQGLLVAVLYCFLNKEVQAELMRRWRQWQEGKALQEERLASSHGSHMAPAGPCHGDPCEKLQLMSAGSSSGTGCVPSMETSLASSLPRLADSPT
Procedure: as §1, §2

mouse SNAP-tagged GIPR = molecular target: T3, mouse SNAP-tagged GIPR (Mus musculus, UniProt Q0P543); assay: β-arrestin-2 activation assay (Borealis sensor) in AD-293 cells; type: cell-based; conditions: 1 μM, 30-minute stimulation, n = 5–6
T3 construct: host or cells: AD-293
T3 sequence (Q0P543 19-460): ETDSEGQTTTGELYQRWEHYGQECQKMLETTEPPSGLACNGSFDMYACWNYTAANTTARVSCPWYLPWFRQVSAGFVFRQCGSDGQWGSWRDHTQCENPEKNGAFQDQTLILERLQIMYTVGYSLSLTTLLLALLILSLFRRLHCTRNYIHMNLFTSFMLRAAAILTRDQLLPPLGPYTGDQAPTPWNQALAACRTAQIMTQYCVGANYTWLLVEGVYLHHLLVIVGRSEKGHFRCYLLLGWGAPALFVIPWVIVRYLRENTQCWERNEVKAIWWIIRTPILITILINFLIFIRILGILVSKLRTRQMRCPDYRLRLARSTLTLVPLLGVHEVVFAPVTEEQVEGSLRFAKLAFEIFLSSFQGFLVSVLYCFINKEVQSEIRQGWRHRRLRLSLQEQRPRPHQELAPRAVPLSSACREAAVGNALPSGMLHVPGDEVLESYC
Procedure: AD-293 cells were transfected with desired plasmid DNA encoding a SNAP-tagged GPCR alongside transduction of Bacmam viral particles encoding the Borealis β-arrestin-2 sensor (Montana Molecular, US) and GRK5 (Montana Molecular, US) 24 h prior to assay. Cells were labelled for 10 min with BG-S-S-649 and imaged at baseline and for 30 min following peptide stimulation. Borealis arrestin sensor fluorescence in BG-S-S-649 labelled cells (representing GPCR expressing cells) was quantified and expressed as a % change from baseline.
AD-293 cells were added to a 96-well plate and maintained in 200 μL complete DMEM. 150 ng of mouse or human SNAP-tagged plasmid GIPR or GLP-1R DNA, 2 μL of Borealis β-arrestin-2 sensor (Montana Molecular, US) and 2 μL of GRK5 (Montana Molecular, US) was added to each well alongside Lipofectamine 2000 and left for 24 hours.
Cells were labelled with cleavable SNAP-tag probe BG-S-S-649 in complete DMEM for 10 minutes prior to washing and imaging. […] Cells were imaged at baseline, registering both BG-S-S-649 fluorescence and borealis arrestin sensor fluorescence. Borealis arrestin sensor fluorescence was then imaged for 30 minutes after peptide addition in intervals of 5 minutes. Borealis arrestin sensor fluorescence in BG-S-S-649 labelled cells was quantified using Fiji v1.54f (NIH) and expressed as a % change from baseline.

GIPR = molecular target: T4, GIPR (Mus musculus, UniProt Q0P543); assay: Ex vivo islet GIPR desensitisation (pre-treat/washout/rechallenge cAMP); type: cell-based; conditions: for rechallenge cAMP response after 24-hour pre-treatment: cADDis
T4 construct: from tissue; host or cells: dispersed pancreatic islets of C57BL/6J, CAMPER Pdx1-CreERT2 and CAMPER Som-Cre mice
T4 sequence (Q0P543 19-460): T3 sequence (Q0P543 19-460)
Procedure: Primary cultures of mouse hypothalamic neurons and dispersed pancreatic islets were transduced with the Green Up cADDis biosensor (Montana Molecular, US). Pancreatic islets from CAMPER^Pdx−1-CreERT2 and CAMPER^Som-Cre mice were not transduced. Cells were pre-treated with peptides as specified, dissolved in culture media. Following 4 h or overnight incubation and a 1-hour washout period, cells were imaged using an epifluorescence microscope at baseline (t = 3 min), following peptide addition (t = 10 min, unless specified otherwise), and following 3-isobutyl-1-methylxanthine (IBMX) (500 μM) and forskolin (FSK) (50 μM) addition (t = 3 min) to maximally stimulate the sensor. In pre-treatment experiments, islet cell fluorescence was normalised to the IBMX/FSK response which was set as 100%. In non-pre-treatment experiments, islet and neuronal cell fluorescence was normalised to both the baseline and IBMX/FSK response. The area-under-the-curve (AUC) for each cell was quantified. Full details of isolation, transduction, plating, imaging and image analysis is provided in the supplementary methods.
During this treatment, peptides were dissolved in islet culture media. Prior to imaging, the peptide washout period was 1 hour in Krebs buffer with 6 mM glucose and 0.1% BSA.
Cells were imaged in Krebs buffer with 6 mM glucose and 0.1% BSA (unless 10% FBS was specified) at 37°C using an automated epifluorescence microscope (modified Nikon Ti-2E with LED illumination). Multiple fields of view (FOV) were imaged in parallel (for islets, multiple wells of a 96 well plate were imaged in parallel), allowing hundreds to thousands of cells to be imaged every minute throughout the time course. For all acquisitions, the first three minutes were baseline recording pre-peptide addition and the last three minutes were a positive control following IBMX (500 μM) and forskolin (50 μM) addition to maximally stimulate the sensor.
Cells were imaged in a similar setup described in the previous paragraph. However, an image spitter (OptoSplit III, Cairn Research Ltd, UK) was used to enable simultaneous acquisition of cyan fluorescent protein (CFP) and yellow fluorescent protein (YFP) emission. cAMP was quantified based on the YFP/CFP FRET ratio from each cell.
cAMP quantification from the raw islet/neuronal images was performed using Fiji v1.54f (NIH). […] The fluorescence intensity of each ROI was measured at each time point. In pre-treatment experiments, islet cell fluorescence was normalised to the maximal IBMX/FSK response which was set as 100%. For non-pre-treatment experiments, neuronal and islet cell fluorescence were normalised to both the baseline and maximal IBMX/FSK response. The AUC during peptide stimulation for each cell was quantified. […]

[1] = Pharmacokinetic study in pigs; type: in vivo; conditions: 0.5 mg/pig subcutaneously, male large white pigs, n = 3
Procedure: Pharmacokinetic testing of GIP108, administered subcutaneously at 0.5 mg/pig in male large white pigs, was outsourced to Pharmaron Ltd., UK. Full details are stated elsewhere.

CC[C@H](C)[C@H](NC(=O)[C@H](CO)NC(=O)[C@H](Cc1ccc(O)cc1)NC(=O)[C@H](CC(=O)O)NC(=O)[C@H](CO)NC(=O)[C@@H](NC(=O)[C@H](Cc1ccccc1)NC(=O)[C@@H](NC(=O)CNC(=O)[C@H](CCC(=O)O)NC(=O)C(C)(C)NC(=O)[C@@H](N)Cc1ccc(O)cc1)[C@@H](C)O)[C@@H](C)CC)C(=O)N[C@@H](C)C(=O)N[C@@H](CC(C)C)C(=O)N[C@@H](CC(=O)O)C(=O)N[C@@H](CCCCN)C(=O)N[C@H](C(=O)N[C@@H](Cc1c[nH]cn1)C(=O)N[C@@H](CCC(N)=O)C(=O)N[C@@H](CCC(N)=O)C(=O)N[C@@H](CC(=O)O)C(=O)N[C@@H](Cc1ccccc1)C(=O)N[C@H](C(=O)N[C@@H](CC(N)=O)C(=O)N[C@@H](Cc1c[nH]c2ccccc12)C(=O)N[C@@H](CC(C)C)C(=O)N[C@@H](CC(C)C)C(=O)N[C@@H](C)C(=O)N[C@@H](CCC(N)=O)C(=O)N[C@@H](CCCCN)C(=O)NCC(=O)N[C@@H](CCCCNC(=O)CC[C@H](NC(=O)CCCCCCCCCCCCCCCCCCC(=O)O)C(=O)O)C(=O)N[C@@H](CCCCN)C(=O)N[C@@H](CC(N)=O)C(=O)N[C@@H](CC(=O)O)C(=O)N[C@@H](Cc1c[nH]c2ccccc12)C(=O)N[C@@H](CCCCN)C(=O)N[C@@H](Cc1c[nH]cn1)C(=O)N[C@@H](CC(N)=O)C(=O)N[C@H](C(=O)N[C@H](C(=O)N[C@@H](CCC(N)=O)C(=O)O)[C@@H](C)O)[C@@H](C)CC)C(C)C)[C@@H](C)CC [GIP108]
cAMP activation of human GCGR (human GCGR): minimal activation | cAMP activation of mouse GCGR (mouse GCGR): minimal activation | β-arrestin-2 activation compared to vehicle control (mouse SNAP-tagged GIPR): neither hGIP (1 μM) nor GIP108 (1 μM) resulted in significant increases | GIPR desensitisation in pancreatic beta cells (GIPR; 24 h GIP108 pre-treatment, TEpacVV FRET sensor, CAMPER Pdx-1-CreERT2 mice, n = 4): GIPR desensitisation was observed in both cell types | GIPR desensitisation in pancreatic delta cells (GIPR; 24 h GIP108 pre-treatment, TEpacVV FRET sensor, CAMPER Som-Cre mice, n = 5): GIPR desensitisation was observed in both cell types | rechallenge cAMP response after 24-hour pre-treatment (GIPR; islets from HFD-induced obese mice, pre-treatment and rechallenge GIP108 (1 µM), n=3): The same effects were observed | rechallenge cAMP response after 24-hour pre-treatment (GIPR; pre-treatment 100 nM or 1 μM GIP108, rechallenge GIP108 (1 μM), dispersed islets from lean mice, n = 11–12): significantly reduced | half-life [1]: extended half-life
